Results: patent US5633345A, “Cyclic peptides” (priority 1992, dated 1997)

Experiments:
Test in all cases: Antifungal activity, MIC by agar dilution method
C. albicans TIMM 0171 = type: cell-based, Candida albicans; details: for MIC: C. albicans TIMM 0171, Sabouraud-dextrose agar medium, 30° C. for 2 days
Description: (§1) The minimum inhibitory concentration (MIC) values were determined after incubation at 30° C. for 2 days.

[1] = system: Cryptococcus neoformans TIMM 0354; type: cell-based; details: Sabouraud-dextrose agar medium, 30° C. for 2 days
Description: as §1

[2] = system: Candida albicans TIMM 0136; type: cell-based; details: Sabouraud-dextrose agar medium, 30° C. for 2 days
Description: as §1

C. grabrata TIMM 1062 = type: cell-based; details: Sabouraud-dextrose agar medium, 30° C. for 2 days
Description: as §1

C. kefyr TIMM 0301 = type: cell-based; details: Sabouraud-dextrose agar medium, 30° C. for 2 days
Description: as §1

Substance	MIC (C. albicans TIMM 0171)	MIC [1]	MIC [2]	MIC (C. grabrata TIMM 1062)	MIC (C. kefyr TIMM 0301)	activity against Candida albicans TIMM 0171 compared with compound 1 (C. albicans TIMM 0171; comparison in words)
cyclo(L-GluOR-L-MeVal-L-Leu-L-βHOMeVal-D-Hmp-L-MeVal-L-Phe-L-MePhe-L- Pro) (R: cis-3-hexenyl) [Compound 34]	0.10 µg/mL	> 25 µg/mL	0.20 µg/mL	0.39 µg/mL	0.78 µg/mL	
cyclo(L-GluOR-L-MeVal-L-Leu-L-βHOMeVal-D-Hmp-L-MeVal-L-Phe-L-MePhe-L- Pro) (R: n-decyl) [Compound 33]	1.56 µg/mL	> 25 µg/mL	1.56 µg/mL	> 25 µg/mL	> 25 µg/mL	
cyclo(L-GluOR-L-MeVal-L-Leu-L-βHOMeVal-D-Hmp-L-MeVal-L-Phe-L-MePhe-L- Pro) (R: n-hexyl) [Compound 31]	0.20 µg/mL	> 25 µg/mL	0.39 µg/mL	1.56 µg/mL	3.12 µg/mL	
cyclo(L-GluOR-L-MeVal-L-Leu-L-βHOMeVal-D-Hmp-L-MeVal-L-Phe-L-MePhe-L- Pro) (R: n-octyl) [Compound 32]	0.78 µg/mL	> 25 µg/mL	0.78 µg/mL	1.56 µg/mL	6.25 µg/mL	
cyclo(L-GluOR-L-MeVal-L-Leu-L-βHOMeVal-D-Hmp-L-MeVal-L-Phe-L-MePhe-L- Pro) (R: trans-3-hexenyl) [Compound 35]	0.78 µg/mL	> 25 µg/mL	0.20 µg/mL	0.39 µg/mL	1.56 µg/mL	
cyclo(L-RONva-L-MeVal-L-Leu-L-βHOMeVal-D-Hmp-L-MeVal-L-Phe-L-MePhe-L- Pro) (R: n-hexanoyl) [Compound 37]	0.10 µg/mL	12.5 µg/mL	0.10 µg/mL	0.39 µg/mL	0.78 µg/mL	
cyclo(L-aIle-L-MeVal-L-GluOR-L-βHOMeVal-D-Hmp-L-MeVal-L-Phe-L-MePhe-L-Pro) (R: cHex) [Compound 38]	0.013 µg/mL	> 25 µg/mL	0.20 µg/mL	1.56 µg/mL	3.12 µg/mL	higher activity against Candida albicans TIMM 0171 than compound 1
cyclo(L-aIle-L-ROMeNva-L-Leu-L-βHOMeVal-D-Hmp-L-MeVal-L-Phe-L-MePhe-L-Pro) (R: Bzl) [Compound 27]	0.78 µg/mL	> 25 µg/mL	0.78 µg/mL	> 25 µg/mL	3.12 µg/mL	
